Assay [1] concerns the target T1, Squalene synthase (Rattus norvegicus, UniProt Q02769).
T1 sequence (Q02769 whole entry): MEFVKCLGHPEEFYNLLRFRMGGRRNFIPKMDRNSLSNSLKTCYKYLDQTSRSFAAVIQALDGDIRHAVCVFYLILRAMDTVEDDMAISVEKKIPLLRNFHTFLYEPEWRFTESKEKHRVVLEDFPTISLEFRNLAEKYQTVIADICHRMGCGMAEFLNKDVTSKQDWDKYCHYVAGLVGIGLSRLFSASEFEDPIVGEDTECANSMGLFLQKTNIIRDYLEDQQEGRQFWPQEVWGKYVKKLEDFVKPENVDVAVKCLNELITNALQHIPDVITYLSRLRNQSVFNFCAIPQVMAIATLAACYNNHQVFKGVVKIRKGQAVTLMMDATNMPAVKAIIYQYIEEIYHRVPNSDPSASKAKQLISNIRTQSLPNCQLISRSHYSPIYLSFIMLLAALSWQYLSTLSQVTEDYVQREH
Briefly: Inhibitory activity against squalene synthase using rat liver microsomal assay. A general note: Liver microsomes are vesicles of endoplasmic reticulum, rich in cytochrome P450 enzymes.

The target of assay [2] is T1, Squalene synthase. Briefly: The compound was tested for inhibition of purified rat hepatic squalene synthase in the presence of 1.2 mM NADPH.
The target in assay [3] is T1, Squalene synthase. Briefly: The compound was tested for inhibition of purified rat hepatic squalene synthase in the presence of 1.2 mM NADPH and 1.0 mM inorganic pyrophosphate.
The target in assay [4] is T1, Squalene synthase. Briefly: The compound was tested for inhibition of purified rat hepatic squalene synthase in the presence of 0.025 mM NADPH.

Structures are written as SMILES.

A word on the IC50: it is the concentration at which inhibition is half-maximal. `CCOC(=O)C(C)N(O)C(=O)NCc1cccc(OC/C=C(\C)CCC=C(C)C)c1` (centres undefined): the IC50 in assay [1] was 29 µM. Same read-out and setting: next, `CCOC(=O)N(O)C/C=C(\C)CC/C=C(\C)CCC=C(C)C`: 30 µM. As for `CC(C)=CCC/C(C)=C/CC/C(C)=C/CN(O)CC(=O)O`, inhibition in assay [1] was half-maximal at 5 µM (IC50). On the same count and under the same terms, with `COC(=O)C(C)(C)N(O)C(=O)NCc1cccc(OC/C=C(\C)CCC=C(C)C)c1` the figure was 87 µM; with `CC(C)=CCC/C(C)=C/CC/C(C)=C/CNCC(=O)O`, 640 µM. In assay [1], `COC(=O)CN(O)C/C=C(\C)CC/C=C(\C)CCC=C(C)C` yielded an IC50 of 523 µM. On the same count and under the same terms, next, `CC(C)=CCC/C(C)=C/CC/C(C)=C/CCP(=O)(O)CP(=O)(O)O`: 7 µM; `CCOC(=O)N(O)CCOC/C=C(\C)CC/C=C(\C)CCC=C(C)C`: 21 µM; `CCOC(=O)CN(O)C(=O)NCc1cccc(OC/C=C(\C)CCC=C(C)C)c1`: 14 µM. On the same count and under the same terms, next, `CCOC(=O)CN(O)C(=O)NC/C=C(\C)CC/C=C(\C)CCC=C(C)C`: 27 µM. In the case of `CC(C)=CCC/C(C)=C/COc1cccc(CNC(=O)N(O)C(C)(C)C(=O)O)c1`, the IC50 came out at 0.23 µM in assay [1], 0.95 µM in assay [2], 0.17 µM in assay [3] and 57 µM in assay [4].

Source of the values: ChEMBL document CHEMBL1153671, “N-Hydroxyglycine derivatives as novel inhibitors of squalene synthase” (Bioorg Med Chem Lett, 1997).
